The text below walks through data of article PMC13289212, “HIVIL: A human in vitro inflammatory liver model recapitulates immune-associated drug effects with high predictivity” (NAM journal, 2025).

Like-named read-outs stand apart in the source and are kept apart here.

The Cmax is the highest concentration seen after dosing. What is called IC50 is the concentration at which inhibition is half-maximal.

The conditions of series [1]: Cammett et al. 2009, Mendes et al. 2014, cited from earlier work.
The conditions of series [2]: binary classification by human hepatotoxicity; ref Thakkar et al. 2020; cited from earlier work.
Series [3] concerns IL-6. Briefly: IL-6 response in HIVIL using THP-1 macrophages co-cultured with iHeps. In kind it is cell-based, human. To be noted: HIVIL with THP-1 instead of iKCs, result in words. From the text: (§1) Human iPSC cell line iPS (IMR90)-4 was purchased from WiCell Research Institute (Madison, WI), and maintained with a feeder-free method according to the instruction from […] Technologies (Vancouver, BC, Canada). The protocol of differentiation towards iKCs and iHeps as described previously with slight modification ([Tasnim et al., 2019]; [Cai et al., 2012]), respectively. The re-optimized protocol to generate iKCs is discussed in Results section. More details are provided in Supplementary Methods. After differentiation, iKCs was harvested using 0.05 % trypsin-EDTA (Gibco, Waltham, Massachusetts, USA), while iHeps were dissociated with TrypLE^TM (Gibco). iHep suspension was further filtered through a 40 µm cell strainer to remove extracellular matrix clumps. Cell suspension was centrifuged at 1000 rpm for 5 min. For co-culture set up, tissue culture plates were coated with Rat tail collagen I (Gibco) diluted 100-fold in 0.02 N acetic acid, and incubated at 37 °C for 1 h and washed 3 times with PBS. According to the protocol optimized by [Tasnim et al. (2019)], iKCs was firstly seeded at a density of 14,000 per well on 96-well plate with Advanced DMEM (plus supplements) containing 5 % FBS. On the following day, iHeps were added at a density of 35,000 per well in Williams’ Medium E (plus supplements) (iHep: iKCs ratio = 2.5: 1). This reflects the physiological ratio of these cells in vivo under inflammatory conditions ([Tasnim et al., 2021]). Fresh media containing drugs was applied to co-cultures the next day. 50,000 cells were seeded to establish iHeps monoculture. THP-1 cells were kindly obtained from Dr. Eliza Fong and cultured as described by [Zeng et al. (2015)]. Details provided in Supplementary Methods.
THP-1 maintenance and differentiation: THP-1 monocytic lineage was maintained in RPMI 1640 with 10% FBS. For differentiation to macrophages, suspension cells were collected and subjected to 2-day phorbol 12-myristate 13-acetate (PMA) treatment (50 ng/ml), followed by a 1-day PMA-free medium resting. THP-1 macrophages were trypsinzed and used for co-culture as described in Material and methods.
Enzyme-linked immunosorbent assay (ELISA) for measurement of cytokines: Interleukin-6 (IL-6), interleukin-10 (IL-10) and tumor necrosis factor alpha (TNFα) levels in the media were measured using the corresponding human-based ELISA kits (Abcam, Cambridge, United Kingdom) according to manufacturer’s instructions. The cytokine production from dosed cells was normalized with the viability value from the same well. The normalized cytokine level upon drug treatments was further presented as percentage of DMSO+LPS. Normalization to viability per well ensures that any changes in cytokines are not due to changes in cell numbers upon drug treatment and normalization to DMSO+LPS allows better comparison between different batches of experiments. This normalization approach has been used in previous studies (Rose et al. 2016).

Series [4] concerns IL-6. Also on record: method as in Steuerwald et al. 2013; Mahdy et al. 2002; Kang et al. 2001. The settings on record: ref Steuerwald et al. 2013; Mahdy et al. 2002; Kang et al. 2001; cited from earlier work.
Series [5] deals with IL-6. In words: IL-6 ELISA in HIVIL (iKCs co-cultured with iHeps, LPS, 48 hr). Type of series: cell-based, human. To be noted: HIVIL; for IC50: Homo sapiens, LPS, 48 hr.
Excerpt: as §1, with “The re-optimized protocol to generate iKCs is discussed in Results section.” left out
(§2) Stock solutions of drugs were prepared in dimethyl sulfoxide (DMSO) and dissolved in medium prior to use. […] For these two drugs, the highest DMSO concentration was 1 %. Supernatant was collected at 48 hr for measurement of cytokines, and remaining cells were subjected to viability assay prior to lysis for RNA extraction.
(§3) Enzyme-linked immunosorbent assay (ELISA) for measurement of cytokines: Interleukin-6 (IL-6), interleukin-10 (IL-10) and tumor necrosis factor alpha (TNFα) levels in the media were measured using the corresponding human-based ELISA kits (Abcam, Cambridge, United Kingdom) according to manufacturer’s instructions. The cytokine production from dosed cells was normalized with the viability value from the same well. The normalized cytokine level upon drug treatments was further presented as percentage of DMSO+LPS. […] This normalization approach has been used in previous studies (Rose et al. 2016).
A general note: An ELISA detects its analyte on a solid surface through an enzyme-linked reagent.

The conditions of series [6]: FDA-labeling information; ref Chen et al. 2016; cited from earlier work.
The test system of series [7] is IL-6. The arrangement: method as in ref Hassan et al. 2016; Giustarini et al. 2019; Higuchi et al. 2012; Dik et al. 2018. The settings on record: ref Hassan et al. 2016; Giustarini et al. 2019; Higuchi et al. 2012; Dik et al. 2018; cited from earlier work.
For series [8], the system named is IL-6. The settings on record: 858.6 μM, 1 μg/mL of LPS; ref Li et al. 2020; cited from earlier work.
In series [9] the test system is TNFα. In words: TNFα ELISA in HIVIL (iKCs co-cultured with iHeps, LPS, 48 hr). In kind it is cell-based, human. To be noted: result in words.
Excerpt: as §1, with “The re-optimized protocol to generate iKCs is discussed in Results section.” left out
as §2, §3

Series [10] relates to TNFα. The settings on record: ref Shaw et al. 2010; Zou et al. 2009; Bekker et al. 2012; Gandhi et al. 2013; Heidari et al. 2019; cited from earlier work.
The test system of series [11] is HIVIL (iKCs co-cultured with iHeps). Briefly: AlamarBlue cell viability in HIVIL. To be noted: Homo sapiens, 48 h, read-out: IC50: viability. As to the method: as §2
For orientation: Alamar Blue is a resazurin reagent that responds to reducing activity.

The conditions of series [12]: ref Ho et al. 2015; Kaplowitz 2005; Verma and Kaplowitz 2009; cited from earlier work.
In series [13] the test system is IL-6. Briefly: Optimization of stimulator and duration: IL-6 production. In kind it is cell-based, human. From the text: In order to evaluate the time-dependent inflammatory responses, we measured interleukin-6 (IL-6) production within 48 hr post-LPS treatment.
[14] abbreviates: ref in each cell: Ademisoye et al. 2018, Xu et al. 2008, Agabeyoglu and Incecayir 2009, Rojanasthien et al. 2007, Reunanen et al. 1992, Li et al. 2002, Hong-mei et al. 2013, Bareggi et al. 1987, Jiang et al. 2008.

On to `CCN(CC)Cc1cc(Nc2ccnc3cc(Cl)ccc23)ccc1O` [AQ, amodiaquine], for which the Cmax in [1] (setting [14]) is 0.1 µM. Moreover, the DILIst in [2] is listed as 1. The “drug-specific IL-6 response with THP-1 macrophages” value (shortened to “drug-specific IL-6 response”) in series [3] is reported as “failed to replicate IL-6 increases”. Also, the “Reported human responses: IL-6” value in series [4] was “IL-6↑ (Steuerwald et al. 2013)”. Further, the IL-6 induction in series [5] (10 μM) is recorded as 1.47 fold.
As to `NC(=O)N1c2ccccc2C=Cc2ccccc21` [CBZ, carbamazepine], the maximum concentration (Cmax) in series [1] (setting [14]) was 25.3 µM. In addition, in series [6], the DILIrank result is given as “most”. Further, the DILIst in [2] is recorded as 1. Besides, the “Reported in-vivo (murine) responses: IL-6” value in [7] was “IL-6↑(Higuchi et al. 2012)”. Also, in series [5], the “group by drug-dependent IL-6 production” value was “dose-dependent induction” and the “increase in IL-6” value was 1.7 fold.
For the compound `NNC(=O)c1ccncc1` [INH, isoniazid], the “changes in IL-6 levels” value in series [8] was “did not show any changes”. Moreover, in series [6], the DILIrank entry is on record as “most”. In addition, in series [2], the DILIst is 1. In addition, the “Reported in-vivo (murine) responses: IL-6” value in series [7] is “IL-6↑ (Hassan et al. 2016)”. The “drug-specific IL-6 response” value in series [3] is listed as “failed to replicate IL-6 increases”. In addition, the “Reported human responses: IL-6” value in series [4] is recorded as “IL-6↑ (Steuerwald et al. 2013)”. For the same compound, in series [5] (all doses tested), the IL-6 induction entry is on record as “at least 1.2 fold”.
Take `Nc1nnc(-c2cccc(Cl)c2Cl)c(N)n1` [LTG, lamotrigine]: in series [1] (setting [14]), the peak concentration (Cmax) was 9.8 µM. Moreover, the DILIrank entry in series [6] is listed as “most”. For the same compound, the DILIst in [2] is 1. In [3], the “drug-specific IL-6 response” value was “failed to replicate IL-6 increases”. Besides, in series [4], the “Reported human responses: IL-6” value is “IL-6↑(Steuerwald et al. 2013)”. Also, in series [5], the “dose-dependent increase in IL-6 levels over baseline” value is recorded as 1.5- to 2 fold.
For the compound `Cc1ccnc2c1NC(=O)c1cccnc1N2C1CC1` [NVP, nevirapine], in [6], the DILIrank result is listed as “most”. Also, the DILIst in series [2] is listed as 1. In series [9], the TNFα induction result was “all concentrations”. Besides, the “Reported in-vivo (murine) responses: TNFα” value in series [10] is reported as “TNFα↑ (Bekker et al. 2012)”. Further, the IC50 in series [11] was 2610 µM. In series [5], the “group by drug-dependent IL-6 production” value is recorded as “dose-dependent inhibition” and it took 1070 µM to reach half-maximal inhibition (IC50).
For `O=C1NC(=O)C(c2ccccc2)(c2ccccc2)N1` [PHT, phenytoin], the Cmax in series [1] (setting [14]) is 15.4 µM. Further, the DILIrank result in series [6] was “most”. Also, the DILIst in series [2] is reported as 1. In addition, the “drug-specific IL-6 response” value in series [3] was “failed to replicate IL-6 increases”. Besides, the “Reported human responses: IL-6” value in series [4] is on record as “IL-6↑ (Steuerwald et al. 2013)”. Also, the “dose-dependent increase in IL-6 levels over baseline” value in series [5] is 1.5- to 2 fold.
For the compound `CCCc1cc(=O)[nH]c(=S)[nH]1` [PTU, propylthiouracil], the Cmax in [1] (setting [14]) and in series [1] (ref in each cell: Xu et al. 2008) was 17.6 µM in each case. In addition, the DILIrank result in series [6] is “most”. Further, the DILIst in series [2] was 1. For the same compound, the TNFα induction result in [9] is given as “all concentrations”. For the same compound, in series [10], the “Reported in-vivo (murine) responses: TNFα” value is “TNFα↑ (Heidari et al. 2019)”. Moreover, the “group by drug-dependent IL-6 production” value in series [5] is recorded as “dose-dependent inhibition”. In [5], it took 259 µM to reach half-maximal inhibition (IC50).
With `NC(=O)c1cnccn1` [PZA, pyrazinamide], the Known immune-mediated effects entry in [12] is “×”. Further, in series [1] (setting [14]), the Cmax was 407 µM. Besides, in series [6], the DILIrank result was “less”. The DILIst in [2] was 1. Besides, the “group by drug-dependent IL-6 production” value in [5] was “no dose-dependent changes”.
For the compound `CN(C/C=C/C#CC(C)(C)C)Cc1cccc2ccccc12` [TBF, terbinafine], the Known immune-mediated effects result in series [12] is “×”. Besides, the Cmax in [1] (setting [14]) is 3.4 µM. The DILIrank result in series [6] is recorded as “most”. Besides, the DILIst in [2] is listed as 1. The “group by drug-dependent IL-6 production” value in series [5] is “no dose-dependent changes”.
On to lipopolysaccharide [LPS], for which the “IL-6 production compared to vehicle control” value in [13] (24 hr post-LPS treatment) was 10.15 fold; in series [13] (48 hr post-LPS treatment), 4.70 fold.
Turning to penicillin, the Known immune-mediated effects entry in series [12] is “×”. The DILIrank result in [6] is reported as “less”. Besides, in [2], the DILIst is on record as 1. Besides, the “group by drug-dependent IL-6 production” value in [5] is listed as “no dose-dependent changes”.
